Data on six compounds can be found in patent US20170334899A1, “AMINO-SUBSTITUTED ISOTHIAZOLES” (Bayer Pharma Aktiengesellschaft, priority 2014, published 2017).

What all share (type): cell-based
In one assay the test system is HeLa-MaTu-ADR. As to the kind of experiment: Proliferation assay (crystal violet), HeLa-MaTu-ADR. The following applies: 96 h; HeLa-MaTu-ADR cells; 4 days incubation; crystal violet staining; read-out: IC50 inhibition of proliferation, HeLa-MaTu-ADR. Summed up:
(§1)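 Four-day compound exposure (0.001-10 μM, 0.5% DMSO final) began 24 h after seeding 1000-5000 cells/well in medium with 10% fetal calf serum. Cell number read by crystal violet absorbance at 595 nm, scaled between day-zero plate and untreated control; 4-parameter fit gave IC50.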

In the next assay the test system is NCI-H460. As to the kind of experiment: Proliferation assay (crystal violet), NCI-H460. The following applies: Homo sapiens, 96 h; NCI-H460 cells; 4 days incubation; crystal violet staining; read-out: IC50 inhibition of proliferation, NCI-H460. In short, it runs like this: as §1
Another assay has as its system DU145. As to the kind of experiment: Proliferation assay (crystal violet), DU145. The following applies: Homo sapiens, DU-145, 96 h; DU145 cells; 4 days incubation; crystal violet staining; read-out: IC50 inhibition of proliferation, DU145. In short, it runs like this:
as §1

A further assay concerns Caco-2. The experiment in a line: Proliferation assay (crystal violet), Caco-2. The following applies: Homo sapiens, 96 h; Caco-2 cells; 4 days incubation; crystal violet staining; read-out: IC50 inhibition of proliferation, Caco2. In short, it runs like this:
as §1

Another assay deals with B16F10. As to the kind of experiment: Proliferation assay (crystal violet), B16F10. The following applies: Mus musculus, B16-F10, 96 h; B16F10 cells; 4 days incubation; crystal violet staining; read-out: IC50 inhibition of proliferation, B16F10. Summed up:
as §1

In the case of `Cc1nsc(Nc2cnc(C(F)(F)F)cn2)c1C(=O)Nc1ccc(OC2CCN(C(=O)OC(C)(C)C)CC2)nc1` [Example 5, tert-Butyl 4-[(5-{[(3-methyl-5-{[5-(trifluoromethyl)pyrazin-2-yl]amino}-1,2-thiazol-4-yl)carbonyl]amino}pyridin-2-yl)oxy]piperidine-1-carboxylate], the IC50 in the assay on HeLa-MaTu-ADR worked out at 370 nM; in the assay with NCI-H460, 250 nM; with DU145, 520 nM; in the assay with Caco-2 it was 350 nM; in the assay on B16F10, 350 nM.

On to `Cc1nsc(Nc2ccc(C#N)cn2)c1C(=O)Nc1ccc(OC2CCCN(CC(F)(F)F)C2)nc1` (stereo not drawn) [Example 40, 5-[(5-Cyanopyridin-2-yl)amino]-3-methyl-N-(6-{[1-(2,2,2-trifluoroethyl)piperidin-3-yl]oxy}pyridin-3-yl)-1,2-thiazole-4-carboxamide], for which the IC50 is 320 nM in the assay on HeLa-MaTu-ADR; 360 nM with NCI-H460; 660 nM in the assay on DU145; 500 nM in the assay with Caco-2; 780 nM in the assay on B16F10.

Regarding `COCCOc1ccc(NC(=O)c2c(C)nsc2Nc2nc3c(C(F)(F)F)cccc3s2)cc1F` [Example 1, N-[3-Fluoro-4-(2-methoxyethoxy)phenyl]-3-methyl-5-{[4-(trifluoromethyl)-1,3-benzothiazol-2-yl]amino}-1,2-thiazole-4-carboxamide], the IC50 with HeLa-MaTu-ADR is 370 nM; with NCI-H460, 240 nM; with DU145 it was 440 nM; in the assay with Caco-2, 260 nM; in the assay on B16F10, 410 nM.

Turning to `Cc1nsc(Nc2cnc3ccccc3n2)c1C(=O)Nc1cccc(C(=O)OC(C)(C)C)c1` [Example 49, tert-Butyl 3-({[3-methyl-5-(quinoxalin-2-ylamino)-1,2-thiazol-4-yl]carbonyl}amino)-benzoate], the IC50 with HeLa-MaTu-ADR was found to be 590 nM; in the assay on NCI-H460 it was 460 nM; in the assay on DU145, 1100 nM; in the assay on Caco-2 it was 650 nM; with B16F10, 910 nM.

For `Cc1nsc(Nc2ccc(C#N)cn2)c1C(=O)Nc1ccc(OC2CCCN(CC(F)F)C2)nc1` (stereo not drawn) [Example 39, 5-[(5-Cyanopyridin-2-yl)amino]-N-(6-{[1-(2,2-difluoroethyl)piperidin-3-yl]oxy}-pyridin-3-yl)-3-methyl-1,2-thiazole-4-carboxamide], the IC50 is 810 nM with HeLa-MaTu-ADR; 990 nM with NCI-H460; 2000 nM in the assay on DU145; 1500 nM in the assay with Caco-2; 2200 nM in the assay on B16F10.

With `Cc1nsc(Nc2ccc(C#N)cn2)c1C(=O)Nc1ccc(OC2CCCN(C(=O)OC(C)(C)C)C2)nc1` (stereo not drawn) [Example 36, tert-Butyl 3-({5-[({5-[(5-cyanopyridin-2-yl)amino]-3-methyl-1,2-thiazol-4-yl}-carbonyl)amino]pyridin-2-yl}oxy)piperidine-1-carboxylate], the IC50 is 330 nM in the assay on HeLa-MaTu-ADR; 400 nM in the assay on NCI-H460; 860 nM in the assay with DU145; 330 nM in the assay on Caco-2; 550 nM with B16F10.
